Test results as given in patent US7691901B2, “Carotenoid analogs or derivatives for the inhibition and amelioration of inflammation” (Cardax Pharmaceuticals Inc., priority 2004, dated 2010).

Tests used:
[1] = assay type: physicochemical
Experimental: Determination of aqueous solubility/dispersibility. 30.13 mg of 3 was added to 1 mL of USP-purified water. The sample was rotated for 2 hours, then centrifuged for 5 minutes. […] A 125-μL aliquot of the solution was then diluted to 25 mL. The sample was analyzed by UV/Vis spectroscopy at 436 nm, and the absorbance was compared to a standard curve compiled from 4 standards of known concentration.
The sample was rotated for 2 hours, then centrifuged for 5 minutes. […] A 125-μL aliquot of the solution was then diluted to 25 mL. The sample was analyzed by UV/Vis spectroscopy at 411 nm, and the absorbance was compared to a standard curve compiled from 4 standards of known concentration.

[2] = test system: differential cell counts (macrophages, monocytes, eosinophils, lymphocytes, neutrophils, and erythrocytes); assay: Thioglycollate/Zymosan-induced peritonitis model: differential cell counts of peritoneal lavage cells; assay type: in vivo, mice; design: RBC, MEAN / RBC, MEDIAN / WBC, MEAN / WBC, MEDIAN: unit not given here
Experimental: Thioglycollate/Zymosan—Induced Peritonitis Model: Wild-type mice were administered either 500 mg/kg body weight of disodium disuccinate astaxanthin (ddAst/Cardax™) in an oil emulsion vehicle, or normal saline (NS) as a negative control, by oral gavage at 24 hours intervals beginning 7 days prior to the induction of peritonitis. Peritonitis was induced experimentally as follows: mice were injected intraperitoneally with 1 ml of 4% by weight thioglycollate (Tg) broth, to induce the recruitment of proinflammatory cells to the peritoneum. Either 16 hours or 72 hours after recruitment, approximately half of the mice were injected intraperitoneally with 250 mg/kg body weight of zymosan (Z) for a further 4 hours. The mice not receiving zymosan underwent no further treatment. Peritoneal lavage was performed in control animals or animals treated with (ddAst) 16 hours post Tg injection, or 20 h following the combination of both Tg injection (16 hours) followed by Z injection (4 hours), as indicated (Tg/Z). Peritoneal lavages were performed with phosphate-buffered saline containing antioxidant (0.1 mM butylated hydroxytoluene (BHT)) and 2 mM of the metal chelator diethylenetriamine pentaacetic acid (DTPA) according to established practices in the art. The lavage suspensions were transferred to screw-capped tubes under an argon atmosphere, and immediately centrifuged at 1000 rpm in a table top microcentrifuge for 10 min at 4° C. to remove whole cells and debris. All analyses of lipid peroxidation products was performed on cell-free lavage supernatants. Cell pellets were resuspended in phosphate-buffered saline containing 0.1 mM BHT and 0.1 mM DTPA, and differential cell counts (macrophages, monocytes, eosinophils, lymphocytes, neutrophils, and erythrocytes) were performed on cytospun preparations of isolated cells according to established procedures in the art.

SMILES: CC1=C(/C=C/C(C)=C/C=C/C(C)=C/C=C/C=C(C)/C=C/C=C(C)/C=C/C2=C(C)C(=O)C(OC(=O)CCC(=O)O)CC2(C)C)C(C)(C)CC(OC(=O)CCC(=O)O)C1=O (centres unmarked) [Cardax, disodium disuccinate astaxanthin]
- water dispersibility [1]: 8.64 mg/mL
- ALV MAC %, MEAN ([2]; 16 Hour Thioglycollate): 3.000%
- EOSIN %, MEAN ([2]; 16 Hour Thioglycollate): 6.000%
- LYMPHS %, MEAN ([2]; 16 Hour Thioglycollate): 23.000%
- MONOS %, MEAN ([2]; 16 Hour Thioglycollate): 39.667%
- NEUTRO %, MEAN ([2]; 16 Hour Thioglycollate): 25.333%
- OTHER %, MEAN ([2]; 16 Hour Thioglycollate): 2.667%
- RBC, MEAN ([2]; 16 Hour Thioglycollate): 449.33
- REACTIVE %, MEAN ([2]; 16 Hour Thioglycollate): 0.333%
- RES EP %, MEAN ([2]; 16 Hour Thioglycollate): 0.000%
- WBC, MEAN ([2]; 16 Hour Thioglycollate): 528.67
- ALV MAC %, MEDIAN ([2]; 16 Hour Thioglycollate): 3.000%
- EOSIN %, MEDIAN ([2]; 16 Hour Thioglycollate): 4.000%
- LYMPHS %, MEDIAN ([2]; 16 Hour Thioglycollate): 19.000%
- MONOS %, MEDIAN ([2]; 16 Hour Thioglycollate): 35.000%
- NEUTRO %, MEDIAN ([2]; 16 Hour Thioglycollate): 21.000%
- OTHER %, MEDIAN ([2]; 16 Hour Thioglycollate): 2.000%
- RBC, MEDIAN ([2]; 16 Hour Thioglycollate): 350.00
- REACTIVE %, MEDIAN ([2]; 16 Hour Thioglycollate): 0.000%
- RES EP %, MEDIAN ([2]; 16 Hour Thioglycollate): 0.000%
- WBC, MEDIAN ([2]; 16 Hour Thioglycollate): 475.00
- ALV MAC %, MEAN ([2]; 72 Hour Thioglycollate): 15.667%
- EOSIN %, MEAN ([2]; 72 Hour Thioglycollate): 1.667%
- LYMPHS %, MEAN ([2]; 72 Hour Thioglycollate): 53.000%
- MONOS %, MEAN ([2]; 72 Hour Thioglycollate): 27.000%
- NEUTRO %, MEAN ([2]; 72 Hour Thioglycollate): 0.000%
- OTHER %, MEAN ([2]; 72 Hour Thioglycollate): 2.333%
- RBC, MEAN ([2]; 72 Hour Thioglycollate): 90.333
- REACTIVE %, MEAN ([2]; 72 Hour Thioglycollate): 0.333%
- RES EP %, MEAN ([2]; 72 Hour Thioglycollate): 0.000%
- WBC, MEAN ([2]; 72 Hour Thioglycollate): 435.33
- ALV MAC %, MEDIAN ([2]; 72 Hour Thioglycollate): 15.000%
- EOSIN %, MEDIAN ([2]; 72 Hour Thioglycollate): 1.000%
- LYMPHS %, MEDIAN ([2]; 72 Hour Thioglycollate): 55.000%
- MONOS %, MEDIAN ([2]; 72 Hour Thioglycollate): 32.000%
- NEUTRO %, MEDIAN ([2]; 72 Hour Thioglycollate): 0.000%
- OTHER %, MEDIAN ([2]; 72 Hour Thioglycollate): 2.000%
- RBC, MEDIAN ([2]; 72 Hour Thioglycollate): 69.000
- REACTIVE %, MEDIAN ([2]; 72 Hour Thioglycollate): 0.000%
- RES EP %, MEDIAN ([2]; 72 Hour Thioglycollate): 0.000%
- WBC, MEDIAN ([2]; 72 Hour Thioglycollate): 448.00
